According to patent US20040157892A1, “Pesticidal fluoroethyl pyrazoles” (CROMPTON CO./Cie, priority 2003, published 2004):

Columns and labels:
Assay type in all cases: in vivo
[1] = system: Tetranychus urticae Motiles; test: mite contact (MIC) bioassay; details: 300 ppm, contact on bean leaf, evaluated five days later
Protocol: (§1) For each compound tested, a stock solution of 3000 ppm was prepared by diluting 0.008 gram of each compound into 2.67 mL of acetone and further diluting with water to make the final concentrations used for the various screens, as follows:
In the mite contact (MIC) bioassay, approximately 20 motile mites confined on a cowpea leaf were sprayed with a 300 ppm concentration and evaluated five days later.
(§2) Since only a single replicate was used for the DBM and SCR screens, confirmation of mortality in an additional evaluation with three larvae at the 100 ppm rate was required to substantiate the initial observation of activity.

Tetranychus urticae Eggs = test: mite ovicide (MIOV) bioassay; details: 100 ppm, contact on bean leaf, egg hatch evaluated nine days later
Protocol: as §1
In the mite ovicide (MIOV) bioassay, approximately 30 mite eggs on cowpea foliage were sprayed with a 100 ppm solution and egg hatch was evaluated nine days later.
as §2

[2] = system: Plutella xylostella Larva; test: diamondback moth (DBM) bioassay; details: 100 ppm, residual on diet, evaluated five days later, confirmed with three larvae
Protocol: as §1
In the diamondback moth (DBM) bioassay, a single larva was exposed to a diet with a surface that had been coated with a 100 ppm solution, and evaluated five days later.
as §2

| Compound | Pesticidal Activity MIC (control) [1] | Pesticidal Activity MIOV (control) (Tetranychus urticae Eggs) | Pesticidal Activity DBM (control) [2] |
| --- | --- | --- | --- |
| FCCn1cc(-c2cccc(Cl)n2)cn1 [Compound 8, 1-(2-fluoroethyl)-4-(6-chloro-2-pyridyl)pyrazole] | 100% | 100% |  |
| CCOC(=O)c1sc(-c2cnn(CCF)c2)nc1C(F)(F)F [Compound 7, Ethyl 2-[1-(2-fluoroethyl)-4-pyrazolyl]-4-trifluoromethyl-5-thiazolecarboxylate] | 100% | 100% |  |
| FCCn1cc(C#Cc2ccc(Cl)cc2)cn1 [Compound 9, 1-(2-fluoroethyl)-4-[(4-chlorophenyl)ethynyl]pyrazole] | 100% | 100% |  |
| Isopropyl 1-(2-fluoroethyl)-3(or 5)-nitro-1H-pyrazole-5 (or 3)-carboxylate [Compound 1] | 100% |  | 100% |
| FCCn1cc(-c2ccc(Cl)s2)cn1 [Compound 6, 1-(2-fluoroethyl)-4-(5-chloro-2-thienyl)pyrazole] | 100% | 100% | 100% |
| FCCn1cc(C#Cc2cccnc2)cn1 [Compound 10] | 100% | 100% |  |
